From patent publication WO2019242687A1, “1,3-dioxane-4,6-dione compound, and preparation method, pharmaceutical composition, and application thereof” (Shanghai Institute of Materia Medica of CAS, priority 2018, dated 2018)
Read-outs that look alike come from different tables or passages of the source.

Tests used:
SIRT1 = target: T1, SIRT1 (Homo sapiens, UniProt Q96EB6); assay: SIRT1 enzyme activity test (deacetylase inhibition); assay type: biochemical; details: 1 μM SIRT1, 500 μM NAD+, 10 μM substrate peptide
T1 sequence (Q96EB6 1-747): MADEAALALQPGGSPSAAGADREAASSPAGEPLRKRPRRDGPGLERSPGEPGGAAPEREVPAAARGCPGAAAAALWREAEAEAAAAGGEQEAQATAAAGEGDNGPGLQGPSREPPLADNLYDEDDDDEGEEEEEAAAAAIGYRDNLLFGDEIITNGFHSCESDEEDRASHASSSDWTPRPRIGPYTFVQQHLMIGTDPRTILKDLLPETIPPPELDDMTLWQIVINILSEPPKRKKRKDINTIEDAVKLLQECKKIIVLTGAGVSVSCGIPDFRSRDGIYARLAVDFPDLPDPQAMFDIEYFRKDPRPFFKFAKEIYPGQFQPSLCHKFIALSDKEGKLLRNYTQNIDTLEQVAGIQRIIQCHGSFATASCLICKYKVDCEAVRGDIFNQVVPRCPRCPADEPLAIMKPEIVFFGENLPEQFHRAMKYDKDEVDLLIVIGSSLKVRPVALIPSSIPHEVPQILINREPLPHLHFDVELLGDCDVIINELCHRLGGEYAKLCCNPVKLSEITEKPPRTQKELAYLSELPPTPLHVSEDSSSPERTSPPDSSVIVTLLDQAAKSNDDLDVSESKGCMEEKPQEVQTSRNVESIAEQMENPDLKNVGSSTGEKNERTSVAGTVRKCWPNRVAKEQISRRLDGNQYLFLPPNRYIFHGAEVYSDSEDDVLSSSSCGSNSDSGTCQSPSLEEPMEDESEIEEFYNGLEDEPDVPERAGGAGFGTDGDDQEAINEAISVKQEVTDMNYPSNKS

SIRT2 = target: T2, SIRT2 (Homo sapiens, UniProt Q8IXJ6); assay: Inhibition of SIRT2 (as SIRT1 IC50 method)
T2 sequence (Q8IXJ6 1-389): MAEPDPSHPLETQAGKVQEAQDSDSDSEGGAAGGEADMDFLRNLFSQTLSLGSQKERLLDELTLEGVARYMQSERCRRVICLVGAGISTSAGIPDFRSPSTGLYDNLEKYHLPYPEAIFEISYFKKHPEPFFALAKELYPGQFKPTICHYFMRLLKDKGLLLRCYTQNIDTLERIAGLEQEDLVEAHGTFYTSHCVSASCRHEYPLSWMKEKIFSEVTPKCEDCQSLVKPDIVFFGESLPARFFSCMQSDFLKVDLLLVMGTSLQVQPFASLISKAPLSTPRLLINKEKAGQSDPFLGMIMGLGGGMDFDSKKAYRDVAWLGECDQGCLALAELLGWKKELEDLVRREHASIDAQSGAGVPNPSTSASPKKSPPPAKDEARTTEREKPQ

SIRT5 = target: T3, SIRT5 (Homo sapiens, UniProt Q9NXA8); assay: Inhibition of SIRT5 (as SIRT1 IC50 method)
T3 sequence (Q9NXA8 37-310): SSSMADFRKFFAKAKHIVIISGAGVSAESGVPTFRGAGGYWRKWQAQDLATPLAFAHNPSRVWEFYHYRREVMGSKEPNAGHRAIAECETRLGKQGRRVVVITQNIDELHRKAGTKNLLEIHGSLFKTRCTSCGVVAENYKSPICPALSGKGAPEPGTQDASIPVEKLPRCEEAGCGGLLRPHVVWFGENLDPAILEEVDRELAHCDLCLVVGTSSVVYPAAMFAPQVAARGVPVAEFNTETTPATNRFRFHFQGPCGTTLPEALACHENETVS

[1] = test system: p53 acetylation levels in SH-SY5Y human neuroblastoma cells; assay: Effect of compounds on p53 acetylation level in cells (Western blot); assay type: cell-based; details: ATRA-induced differentiation, compound 10 μM, 2 h, Figure 5
SIRT3 = target: T4, SIRT3 (Homo sapiens, UniProt Q9NTG7); assay: Inhibition of SIRT3 (as SIRT1 IC50 method)
T4 sequence (Q9NTG7 1-399): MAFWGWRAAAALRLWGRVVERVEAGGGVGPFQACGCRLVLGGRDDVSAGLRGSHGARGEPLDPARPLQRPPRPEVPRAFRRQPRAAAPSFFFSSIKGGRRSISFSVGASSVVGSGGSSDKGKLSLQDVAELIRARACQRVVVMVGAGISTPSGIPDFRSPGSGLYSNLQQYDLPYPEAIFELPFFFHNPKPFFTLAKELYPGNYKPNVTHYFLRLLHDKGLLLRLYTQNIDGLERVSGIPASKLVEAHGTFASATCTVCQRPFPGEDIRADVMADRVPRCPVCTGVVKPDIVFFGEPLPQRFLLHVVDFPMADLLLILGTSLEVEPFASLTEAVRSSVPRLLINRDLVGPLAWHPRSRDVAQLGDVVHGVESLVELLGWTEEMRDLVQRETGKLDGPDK

[2] = Table 3, SITR1 [sic], read-out: Inhibition of SIRT1 deacylation (IC50)
[3] = Table 2, 37 °C, 30 min, read-out: IC50

SMILES	IC50 (SIRT1; [2]) [µM]	effect on decrease of p53 acetylation level [1]	IC50 (SIRT1; [3]) [µM]	further results
COc1cc(C=C2C(=O)OC(c3ccccc3)OC2=O)cc(Cl)c1O (stereo not drawn) [Compound S10, 5-(3-chloro-4-hydroxy-5-methoxybenzylidene) -2-phenyl-1,3-dioxane-4,6-dione]	1.9 ± 0.53	抑制ATRA诱导的SH-SY5Y细胞分化过程中p53乙酰化水平降低	–	IC50 (SIRT2): 64.4 ± 7.09 µM; IC50 (SIRT5): 32.5 ± 1.15 µM; IC50 (SIRT3): 204 ± 16.2 µM
O=C1OC(c2ccccc2)OC(=O)C1=Cc1ccc(OCc2ccc3c(c2)OCO3)cc1 (stereo not drawn) [Compound S17, 5-[4-(1,3-Benzodioxolane-5-alkylmethoxy)benzylidene] -2-phenyl-1,3-dioxane-4,6-dione]	–	–	3.41 ± 0.19	–
CC1(c2ccccc2)OC(=O)C(=Cc2ccccc2)C(=O)O1 (stereo not drawn) [Compound S8, 5-benzylidene-2-methyl-2-phenyl-1,3-dioxane-4,6-dione]	–	–	> 50	–
COc1cc(C=C2C(=O)OC(c3ccccc3)OC2=O)cc(I)c1O (stereo not drawn) [Compound S6, 5-(4-hydroxy-3-iodo-5-methoxybenzylidene) -2-phenyl-1,3-dioxane-4,6-dione]	0.89 ± 0.01	抑制ATRA诱导的SH-SY5Y细胞分化过程中p53乙酰化水平降低	–	–
COc1cc(OC)c(C=C2C(=O)OC(c3ccccc3)OC2=O)cc1Br (stereo not drawn) [Compound S22, 5-(5-bromo-2,4-dimethoxybenzylidene) -2-phenyl-1,3-dioxane-4,6-dione]	–	–	4.89 ± 0.35	–
COc1cc(C=C2C(=O)OC(C)(c3ccccc3)OC2=O)cc(I)c1O (stereo not drawn) [Compound S2, 5-(4-hydroxy-3-iodo-5-methoxybenzylidene) -2-methyl-2-phenyl-1,3-dioxane-4,6-dione]	–	–	2.45 ± 0.37	–
CC(C)Oc1ccccc1C=C1C(=O)OC(c2ccccc2)OC1=O (stereo not drawn) [Compound S14, 5-(2-isopropoxybenzylidene) -2-phenyl-1,3-dioxane-4,6-dione]	–	–	14 ± 2.01	–
O=C(COc1ccc(C=C2C(=O)OC(c3ccccc3)OC2=O)cc1)Nc1ccccc1 (stereo not drawn) [Compound S21, 2-{4-[(4,6-Dioxo-2-phenyl-1,3-dioxane-5-ylbenzylidene)methyl]phenoxy} -N-phenylacetamide]	–	–	4.51 ± 1.17	–
O=C1OC(c2ccccc2)OC(=O)C1=Cc1cc(Cl)c(O)c(Cl)c1 (stereo not drawn) [Compound S15, 5-(3,5-dichloro-4-hydroxybenzylidene) -2-phenyl-1,3-dioxane-4,6-dione]	1.2 ± 0.09	抑制ATRA诱导的SH-SY5Y细胞分化过程中p53乙酰化水平降低	–	–
